Measurements as given in patent US9554988B2, “Method for preventing or treating skin tumor” (Galderma Research & Development, priority 2010, dated 2017).
Like-named read-outs stand apart in the source and are kept apart here.

Tests used:
pancreatic cancer cells = settings: Shen et al. 2008; cited from earlier work
[1] = tested on: human tumor epithelial breast cell lines or mouse mammary tumor cell line; settings: activation of alpha-adrenoceptors; Vazquez et al. 2006, Bruzzone et al. 2008; cited from earlier work
[2] = tested on: Albino hairless SKH1-hr mice; settings: for Median Week to Tumor (≧1 mm): 40 weeks treatment + 12 weeks observation, time at which one-half of group has one or more qualifying tumors; for Tumor Yield (≧1 mm): average number of tumors per survivor
Method: Albino hairless SKH1-hr mice (36/sex/group) were treated for 40 weeks with UVR and brimonidine gel or vehicle according to the design in table 11. […] Topical treatments were performed approximately one hour before UVR on Monday, Wednesday and Friday of each week and approximately one hour after UVR Tuesday and Thursday of each week.

[3] = 0.18% topical + 600 RBU/week UVR

In the case of `COC(=O)[C@@H]1[C@H]2C[C@H]3c4[nH]c5ccccc5c4CCN3C[C@@H]2CC[C@@H]1O` [yohimbine], the “Apoptosis of pancreatic cancer cells” value (pancreatic cancer cells) is given as “induced apoptosis” and the “Proliferation of pancreatic cancer cells” value (pancreatic cancer cells) is given as “inhibited the proliferation”.

In the case of `Cc1cc(C(C)(C)C)c(O)c(C)c1CC1=NCCN1` [oxymetazoline], the “Proliferation of tumor cell lines” value [1] is listed as “enhanced proliferation”.

In the case of `Cc1cccc([C@H](C)c2cnc[nH]2)c1C` [dexmedetomidine], the “Proliferation of tumor cell lines” value [1] is given as “enhanced proliferation”.

In the case of Brimonidine tartrate, the “Reduction of tumor yield (≧1 mm) compared to the vehicle group” value (“Reduction of tumor yield (≧1 mm)” below) [2, 3] is reported as 1.7 fold, the “Median Week to Tumor (≧1 mm)” value [2, 3] is reported as 48 Week and the “Tumor Yield (≧1 mm)” value [2, 3] is reported as 2.40 tumors per survivor. For the same molecule, the “Members of the group that acquired one or more qualifying tumors (≧1 mm) within the 52-week study period” value ([2]; 1% topical + 600 RBU/week UVR) was “less than one-half of the members of the groups acquired one or more qualifying tumors”, the “Reduction of tumor yield (≧1 mm)” value ([2]; 1% topical + 600 RBU/week UVR) was 4.7 fold and the “Median Week to Tumor (≧1 mm)” value ([2]; 1% topical + 600 RBU/week UVR) was over 52 Week. The “Tumor Yield (≧1 mm)” value ([2]; 1% topical + 600 RBU/week UVR) was 0.85 tumors per survivor, the “Members of the group that acquired one or more qualifying tumors (≧1 mm) within the 52-week study period” value ([2]; 2% topical + 600 RBU/week UVR) was “less than one-half of the members of the groups acquired one or more qualifying tumors” and the “Reduction of tumor yield (≧1 mm)” value ([2]; 2% topical + 600 RBU/week UVR) was 8.1 fold. For the same molecule, the “Median Week to Tumor (≧1 mm)” value ([2]; 2% topical + 600 RBU/week UVR) was over 52 Week, the “Tumor Yield (≧1 mm)” value ([2]; 2% topical + 600 RBU/week UVR) was 0.49 tumors per survivor and the “UV-induced skin tumor formation” value ([2]; topical 0.18%, 1% and 2% concentrations) was “dose-dependent delay”. The “Sizes of tumors (tumor prevalence, FIG. 1)” value ([2]; with increasing concentration, perceptible, 1 mm, 2 mm, 4 mm tumors, sexes combined) was “sizes of tumors were also reduced”.

For `Clc1cccc(Cl)c1N=C1NCCN1` [clonidine], the “Proliferation of tumor cell lines” value [1] is given as “enhanced proliferation”.
